{"source": "patent US12545686B2", "about": "“Polymorphic forms of (s)-n-(3-bromo-2-fluorophenyl)-7-((4-methylpiperazin-1-yl)methyl)-7,8-dihydro-[1,4]dioxino[2,3-g]quinazolin-4-amine as EGFR inhibitors” (ERASCA, INC., priority 2021, dated 2026)", "key": {"[1]": {"assay": "pH dependent solubility tests in 0.1 M HCl, citrate buffer and USP phosphate buffers", "assay_type": "physicochemical", "details": "in 1.0 ml of 0.1M HCl", "procedure": "pH dependent solubility tests were conducted in 0.1 M HCl, in citrate buffer, and in USP phosphate buffers with nominal pH values of 6.8 and 7.4. Solubility tests at pH values below 5 failed because all compounds dissolved during the equilibration phase."}, "EGFR": {"target": "EGFR (Homo sapiens, UniProt P00533)", "sequence (P00533 25-1210)": "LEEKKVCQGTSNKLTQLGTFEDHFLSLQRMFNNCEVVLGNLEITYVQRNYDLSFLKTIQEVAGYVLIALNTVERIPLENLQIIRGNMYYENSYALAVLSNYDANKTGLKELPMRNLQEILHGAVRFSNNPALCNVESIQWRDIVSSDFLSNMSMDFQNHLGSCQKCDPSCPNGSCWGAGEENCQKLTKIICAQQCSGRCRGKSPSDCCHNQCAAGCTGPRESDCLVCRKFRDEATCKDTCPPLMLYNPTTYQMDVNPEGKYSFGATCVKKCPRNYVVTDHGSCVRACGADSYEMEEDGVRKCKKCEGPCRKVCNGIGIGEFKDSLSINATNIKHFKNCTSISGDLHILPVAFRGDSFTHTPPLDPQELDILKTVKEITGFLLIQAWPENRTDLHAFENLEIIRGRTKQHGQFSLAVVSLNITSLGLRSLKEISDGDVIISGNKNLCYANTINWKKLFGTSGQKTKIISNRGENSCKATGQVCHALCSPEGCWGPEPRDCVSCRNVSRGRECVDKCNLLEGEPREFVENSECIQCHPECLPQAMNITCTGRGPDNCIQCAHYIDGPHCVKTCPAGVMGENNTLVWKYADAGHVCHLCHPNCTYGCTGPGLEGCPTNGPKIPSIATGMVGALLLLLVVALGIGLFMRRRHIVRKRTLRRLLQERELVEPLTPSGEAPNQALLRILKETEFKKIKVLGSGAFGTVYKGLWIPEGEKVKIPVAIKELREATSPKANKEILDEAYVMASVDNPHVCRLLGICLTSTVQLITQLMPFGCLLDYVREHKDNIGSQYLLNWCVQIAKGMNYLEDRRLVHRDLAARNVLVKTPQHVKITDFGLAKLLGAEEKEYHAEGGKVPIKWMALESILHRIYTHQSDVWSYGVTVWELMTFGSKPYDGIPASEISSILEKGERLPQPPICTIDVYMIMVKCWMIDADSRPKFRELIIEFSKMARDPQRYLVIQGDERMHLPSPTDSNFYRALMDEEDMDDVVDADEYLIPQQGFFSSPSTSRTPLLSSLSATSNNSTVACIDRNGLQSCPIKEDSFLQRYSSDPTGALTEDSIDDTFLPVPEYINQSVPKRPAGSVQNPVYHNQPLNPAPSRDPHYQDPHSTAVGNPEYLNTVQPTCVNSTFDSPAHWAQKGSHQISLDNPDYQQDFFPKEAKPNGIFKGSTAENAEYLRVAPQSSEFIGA", "details": "as disclosed in WO 2020/190765; cited from earlier work"}, "[2]": {"details": "as disclosed in WO 2020/190765; cited from earlier work"}}, "data": [{"smiles": "CN1CCN(C[C@H]2COc3cc4ncnc(Nc5cccc(Br)c5F)c4cc3O2)CC1", "note": "[Compound (I), (S)—N-(3-bromo-2-fluorophenyl)-7-((4-methylpiperazin-1-yl)methyl)-7,8-dihydro-[1,4]dioxino[2,3-g]quinazolin-4-amine]", "values": [{"measurement": "Amount of compound that easily dissolves (approximate test)", "setting": "[1]", "value": "≥ 55", "unit": "mg"}, {"measurement": "EGFR inhibitory activity", "setting": "EGFR", "value": "good EGFR inhibitory activity"}, {"measurement": "Brain penetration capability", "setting": "[2]", "value": "brain penetration capability"}]}]}
